Results on seven compounds are retold here after patent US20060194971A1, “Anethole dithiolethione and other dithiolethiones for the treatment of conditions associated with dysfunction of monoamine neruotransmission” (priority 2005, published 2006).

Like-named read-outs stand apart in the source and are kept apart here.

For data set [1], the target named is T1, monoamine oxidase-B (MAO-B) (Rattus norvegicus, UniProt P19643).
T1 construct: in cellular extracts obtained from cultures of neonatal rat striatal astroglial cells; endogenous in cells; host or cells: cultured neonatal rat striatal astroglial cells (supernatant of sonicated lysate)
T1 sequence (P19643 1-520): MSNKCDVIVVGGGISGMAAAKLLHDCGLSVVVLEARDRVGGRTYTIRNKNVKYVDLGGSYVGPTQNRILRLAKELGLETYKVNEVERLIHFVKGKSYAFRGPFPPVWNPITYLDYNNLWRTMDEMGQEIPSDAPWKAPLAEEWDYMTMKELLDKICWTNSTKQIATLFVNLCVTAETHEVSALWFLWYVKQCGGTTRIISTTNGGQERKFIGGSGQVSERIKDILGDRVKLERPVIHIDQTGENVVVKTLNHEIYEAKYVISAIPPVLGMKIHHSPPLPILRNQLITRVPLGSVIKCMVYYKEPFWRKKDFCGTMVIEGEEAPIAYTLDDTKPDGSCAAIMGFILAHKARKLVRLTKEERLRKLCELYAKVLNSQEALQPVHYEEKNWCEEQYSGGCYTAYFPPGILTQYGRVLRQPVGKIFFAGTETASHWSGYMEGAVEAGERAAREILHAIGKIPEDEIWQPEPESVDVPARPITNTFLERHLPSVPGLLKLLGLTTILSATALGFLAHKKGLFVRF
The experiment in a line: MAO-B activity in astroglial cell extracts in the presence of clorgyline, Amplex Red MAO assay. Type of data set: biochemical. As for the experimental part:
(§1) Neonatal rat striatal astroglial cells were used as a source for both MAO-A and MAO-B activity (Carlo et al., Brain Res 711, 175-183, 1996). Astroglial cells were cultured as described (Langeveld et al., Neurosci. Lett. 192, 13-16, 1995). Following one week in culture in 5% CO2/95% air and at 37° C., cells were trypsinized and sonicated in ice cold 25 mM Tris-HCl buffer (pH 7.4) containing 1 mM EDTA. Thereafter, the obtained lysates were centrifuged for 5 min at 1 0,000 g and 4° C., and aliquots of the supernatant fractions were taken for determination of MAO activity using the Amplex Red MAO assay kit (Molecular Probes, Leiden, The Netherlands), which is based on the method described by Zhou and Panchuk-Voloshina (Anal. Biochem. 253, 169-174, 1997). Measurements were performed according to the manufacturers instructions. Briefly, prior to addition of the substrate, the samples were incubated for 30 min in a 96 well plate with drugs or solvent (total volume of 50 μl). Thereafter, 50 μl Amplex Red reagent was added containing 2 U/ml horseradisch peroxidase (HRP), p-tyramine HCl (2 mM, substrate for both MAO A and MAO B (Youdim and Finberg, Biochem. Pharmacol., 41, 155-162, 1991) and Amplex red (10 mM). Under these circumstances, via MAO-catalyzed oxidation of tyramine in a HRP-coupled reaction, Amplex red is converted to fluorescent resorufin. To measure MAO activity, the time-dependent increase in resorufin formation was determined at 2 min time intervals for 30 min at room temperature in a fluorescence microplate reader (BMG Labtechnologies GmbH, Germany), using excitation at 544 nm and emission at 595 nm. […] For calculation of results, the data were corrected for background readings (i.e., in the absence of the MAO substrate tyramine), and expressed as the increase in arbitrary fluorescence units/min. Protein content was determined according to the method of Bradford et al., (Anal. Biochem. 72, 248-254, 1976), using BSA as a standard. Statistical comparisons between groups were made using a one-way analysis of variance (ANOVA) followed by a Newman-Keuls post-hoc test. P values <0.01 were considered significant.
(§2) MAO activity and effects of the drugs thereon were determined as detailed above.
(§3) Data are expressed as percentages of respective controls, and are averages of two till five independent experiments performed in triplicate.

In data set [2] the test system is total monoamine oxidase (Σ MAO). The settings on record: for Σ MAO activity (% inhibition): solvent 0.03% DMSO only, neonatal rat striatal astroglial cell extracts. Here is the method: as §1, §2, §3
The target in data set [3] is T2, monoamine oxidase A (MAO-A) (Rattus norvegicus, UniProt P21396).
T2 sequence (P21396 1-526): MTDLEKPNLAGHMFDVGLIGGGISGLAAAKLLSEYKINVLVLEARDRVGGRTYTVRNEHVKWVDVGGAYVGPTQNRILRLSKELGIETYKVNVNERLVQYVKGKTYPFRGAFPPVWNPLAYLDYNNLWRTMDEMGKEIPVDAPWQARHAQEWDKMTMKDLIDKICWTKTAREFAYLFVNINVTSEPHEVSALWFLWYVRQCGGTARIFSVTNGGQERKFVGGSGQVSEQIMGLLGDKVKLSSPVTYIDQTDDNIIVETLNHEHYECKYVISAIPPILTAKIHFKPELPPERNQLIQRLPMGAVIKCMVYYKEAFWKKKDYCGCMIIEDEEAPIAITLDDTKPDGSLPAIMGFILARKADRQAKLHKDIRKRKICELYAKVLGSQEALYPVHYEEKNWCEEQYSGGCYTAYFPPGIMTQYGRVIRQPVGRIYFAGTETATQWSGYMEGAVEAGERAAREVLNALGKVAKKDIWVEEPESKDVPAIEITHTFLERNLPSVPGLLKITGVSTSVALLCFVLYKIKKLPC
As to conditions: upon selective and complete blockade of MAO-B activity with deprenyl. Here is the method: as §1, §2, §3

In a further data set the test system is MAO-B. The experiment in a line: MAO-B inhibitory activity measured at CEREP (protocol of Salach). Type of data set: biochemical. As for the experimental part:
MAO-B inhibitory activity of the compounds A1-D6 were measured at CEREP (Paris, France), according to the protocol described by J. L. Salach, Arch. Biochem. Biophys., 192, 128,1979.
MAO-B inhibitory activity of the compounds A1-D6 AS measured at CEREP (Paris, France), according to the protocol described by J. L. Salach, Arch. Biochem. Biophys., 192, 128, 1979.

The mark [4] stands for this setting: read-out: MAO-B activity (% inhibition).

The term inhibition denotes the drop in the measured response relative to a control, in per cent. Broadly, the IC50 is the concentration that inhibits the measured activity by half. Consider `COc1ccc(-c2cc(=S)ss2)cc1` [ADT, 5-(p-methoxyphenyl)-3H-1,2-dithiole-3-thione], for which the “concentration-effect relationship for MAO-B compared to inhibition of total MAO activity” value in data set [1] (following selective and complete blockade of MAO-A activity by clorgyline) is “identical concentration-effect relationships”. Also, in data set [1] (setting [4]), the inhibition at 0.03 µM is 0%, the inhibition at 0.1 µM came to 15%, the inhibition at 0.3 µM was found to be 40% and the inhibition at 1 µM amounted to 73%. Besides, in data set [1] (setting [4]), the inhibition at 3 µM was determined as 89%, the inhibition at 10 µM amounted to 96% and the inhibition at 30 µM came to 100%. Moreover, the “Σ MAO activity (% inhibition)” value in data set [2] (0.1 μM) is recorded as 14%. The “Σ MAO activity (% inhibition)” value in data set [2] (0.3 μM) was 35%. Also, in data set [2] (1 μM), the “Σ MAO activity (% inhibition)” value is on record as 60%. Further, in data set [2] (3 μM), the “Σ MAO activity (% inhibition)” value is given as 70%. Besides, the “Σ MAO activity (% inhibition)” value in data set [2] (10 μM) was 81%. For the same compound, in data set [2] (30 μM), the “Σ MAO activity (% inhibition)” value turned out to be 85%. The “maximal effect on total MAO activity (inhibition)” value in data set [2] (at a concentration of 30 μM) is given as ~80%. In data set [2] (read-out: apparent IC50, inhibition of total astroglial MAO activity, substrate tyramine, astroglial cell extracts), the half-inhibitory concentration (IC50) is ~0.5 µM. Also, the “effect on MAO-A activity” value in data set [3] is reported as “no statistically significant effect”.

One may read the melting point as the temperature, or range, at which the solid turns liquid. `CCCCCCOc1ccc(-c2cssc2=S)cc1` [Compound A1] came in with a melting point of 121 °C. Moreover, the “MAO-B %-inhibition at 10^−5 M” value in the data set on MAO-B is given as 100%.

Take `S=c1ssc(N2CCN(c3cccc4c3OCCO4)CC2)c1-c1ccccc1` [Compound B1]: the “MAO-B %-inhibition at 10^−5 M” value with MAO-B is listed as 65%.

On to `Cc1ccc(-c2c(N3CCN(c4ccccc4)CC3)ssc2=S)cc1` [Compound B3], for which the “MAO-B %-inhibition at 10^−5 M” value in the data set with MAO-B came to 54%.

For `CCN(CC)c1ccc(C=Cc2cc(=S)ss2)cc1` [Compound C1], the “MAO-B %-inhibition at 10^−5 M” value with MAO-B stood at 52%.

As for `S=c1cc(C=Cc2ccc3ccccc3n2)ss1` [Compound C2], the “MAO-B %-inhibition at 10^−5 M” value with MAO-B was 56%.

On to `S=c1ccss1` [Compound D3T, 3H-1,2-dithiole-3-thione], for which the “maximally effective concentration, blockade of MAO-B activity” value in data set [1] (in the presence of clorgyline) is 300 µM. Besides, in data set [1] (setting [4]), the inhibition at 1 µM worked out at 2%, the inhibition at 3 µM was determined as 6%, the inhibition at 10 µM came out at 24% and the inhibition at 30 µM came out at 59%. In data set [1] (setting [4]), the inhibition at 100 µM was 82%, the inhibition at 300 µM came to 92% and the inhibition at 1000 µM amounted to 91%. In addition, the IC50 in data set [1] (read-out: apparent IC50, blockade of MAO-B activity) is ~20 µM.
